Experimental data published in patent publication EP4737449A1 (Changchun Genescience Pharmaceutical Co., Ltd., priority 2023, dated 2025).

Key:
PXR = target: T1, PXR (Homo sapiens, UniProt O75469); assay: PXR activity test in DPX2 cells (luciferase); type: cell-based; settings: for Activation fold: DPX2 cells, 24 h; for Percentage relative to positive control: positive control rifampicin
T1 construct: expressed in transfected cells; host or cells: DPX2 cells
T1 sequence (O75469 1-434): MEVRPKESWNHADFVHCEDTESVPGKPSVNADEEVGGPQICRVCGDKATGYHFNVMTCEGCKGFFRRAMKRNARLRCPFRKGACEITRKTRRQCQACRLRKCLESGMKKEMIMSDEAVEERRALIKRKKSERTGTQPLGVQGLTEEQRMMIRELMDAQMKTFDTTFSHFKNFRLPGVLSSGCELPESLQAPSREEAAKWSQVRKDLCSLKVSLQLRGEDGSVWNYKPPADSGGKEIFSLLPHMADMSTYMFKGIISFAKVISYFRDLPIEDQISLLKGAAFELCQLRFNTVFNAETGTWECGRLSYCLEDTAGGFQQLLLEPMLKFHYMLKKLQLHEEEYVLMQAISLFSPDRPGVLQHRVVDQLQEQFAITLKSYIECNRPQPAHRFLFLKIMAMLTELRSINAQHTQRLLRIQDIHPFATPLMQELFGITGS
Method: The cells were digested when they covered 80-90% of the bottom of the flask. • 3) The surface of the T-75 cultured cells was washed with 10 mL of PBS, PBS was removed by pipetting, 3-5 mL of trypsin was added, the cells were digested at 37°C for 5 min or until the cells were completely digested and in a suspended state, and excessive culture medium containing fetal bovine serum was added to terminate trypsin digestion. • 4) The cell suspension was transferred to a conical-bottom centrifuge tube and centrifuged at 150 g for 5 min at room temperature. The supernatant was carefully removed by pipetting and the cells were re-suspended in treatment medium to have a concentration of 3.2×10^5 cells/mL (incubation time 24 h, plate seeding density […]). In a 384-well cell culture plate, 25 μL of cell suspension was added to each well. The cell plate was placed in an incubator at 95% humidity, 37°C, and 5% CO2 for 24 h. […] The cell plates were placed in an incubator and further incubated for 24 h. • 3) Before starting experiments with the substrate, cell morphology and monolayer integrity were checked to ensure the monolayer is of acceptable quality for studies. […] GF-AFC substrate (10 μL) was added to Assay Buffer (10 ml) to form 2X reagent, which was then diluted into 1X reagent with 10 mL of PBS. ONE-Glo Luciferase substrate was added to ONE-Glo Luciferase Assay Buffer. • 3) The culture plate was taken out of the incubator, the culture medium was discarded, 1X CellTiter-Fluor^TM reagent was poured into the sample loading slot, 25 μL of reagent was added to each well of the culture plate using a pipetting workstation, and then the plate was placed in the incubator for incubation for 30 min. • 4) The cell culture plate was taken out from the incubator, cooled slightly to room temperature, and the fluorescence value was measured by automatic quantitative microplate reader. […] The activation fold of mRNA is calculated using the following formula: Fold activation = (RLUtest/RFUtest)/(RLUvehicle/RFUvehicle) [formula] 2) The percentage of cell viability of the compound is calculated as follows: Cell Viability % = (RFUtest/RFUvehicle) × 100 [formula] 3) The percentage relative to the positive control is calculated according to the following formula: Percent of positive control(%) = (Foldactivationtest/[…]:?}

[1] = Caco-2 cell permeability test; type: in vitro ADME; settings: human, Caco-2, 10 µM compound; for Papp A→B at 120 min, 10 µM / Papp B→A at 120 min, 10 µM / efflux ratio at 120 min, 10 µM: pH 7.4; for efflux ratio at 120 min, 10 µM: read-out: Efflux rate
Method: • 1) Cell culture: The resuscitated Caco-2 cells were cultured in DMEM culture solution containing 10% FBS, 1% Penicillin-Streptomycin Liquid (100X) and 1% NEAA in an incubator at 37 °C with 5% CO2. The culture medium was replaced every 2-3 days and subculture was carried out when the cell confluence reached about 80%. • 2) Preparation of transport buffer: Transport buffer (pH 7.4) was prepared by adding 5 mL of 1M HEPES to 500 mL of HBSS (with or without BSA) to a final concentration of 10 mM HEPES (with or without BSA). • 3) Before the start of the transport experiment (day 14-28), the culture medium was taken out from the cell culture plate, the plate was washed twice with preheated HBSS buffer (10 mM HEPES, pH 7.4), and 100 µL of HBSS buffer was added into each well. After incubation at 37°C for 30 min, the TEER values were measured by a cell resistance meter (Millicell-ERS2) to confirm the integrity and compactness of the monolayer cells. • 4) The HBSS buffer was discarded, the upper plate containing the cell monolayer membrane was transferred to the corresponding receiving plate, the test compound solution or buffer was added to the top (A side) and the basal side (B side), respectively, the cell plate was placed in the corresponding 96-well receiving plate, and grouping was carried out according to Table 6. The prepared positive control drug, test compound or HBSS (with or without BSA) buffer were added to the A side or B side of the Transwell cell plate filter membrane, and the cell plate was incubated at 37°C. Table 6. Compound grouping scheme
• 1) After incubation for 5 min, a sample was taken from the A and B administration sides, 8 µL each side, and added into 72 µL of transport buffer (diluted 10 times) to serve as T0 of the initial administration solution. • 2) After incubation for 120 min, the samples from both ends of the Transwell cell plate filter membrane were collected, and 80 µL of sample solution was taken from the receiving side to serve as the sample at the receiving side after transport, and 8 µL of sample was taken from the administration side and added into 72 µL of transport buffer to serve as the sample at the administration side after transport. • 3) After collecting the samples from both sides, the plate was gently tapped to discard the remaining solution in the cell plate, the cell plate was rinsed with the transport buffer, 100 µL of acetonitrile solution containing internal standard working solution was added to each well to lyse the cells, the system was pipetted up and down to well mix it, and then 80 µL of cell lysate from each well was measured by pipetting to serve as the sample after cell lysis. • 4) After collecting all samples in the transport system (T0 sample, receiving side sample, and donor side sample), 160 µL of IS/ACN solution was added to each well, 80 µL of IS/ACN solution was added to the collected lysate sample, and then the sample was sealed. • 5) The sample plate was shaken for 10 min, and stored at -20°C before LC-MS/MS analysis. • 6) A standard curve was plotted, and then 8 µL of standard curve solution was taken and mixed with 72 µL of transport buffer and 160 µL of IS/ACN to serve as the standard curve sample. • 7) All the above samples were centrifuged at 6000 RPM for 10 min, 100 µL of supernatant was taken, 100 µL of H2O was added, and the mixture was fully mixed, and analyzed by LC-MS/MS.

[2] = Concentration 1 (µM per method)
[3] = Concentration 10 (µM per method)

Row | SMILES | Activation fold (PXR; [2]) | Percentage relative to positive control (PXR; [2]) [%] | Activation fold (PXR; [3]) | Percentage relative to positive control (PXR; [3]) [%] | Papp A→B at 120 min, 10 µM ([1]; 120 min) [×10⁻⁶ cm/s] | Papp B→A at 120 min, 10 µM ([1]; 120 min) [×10⁻⁶ cm/s] | efflux ratio at 120 min, 10 µM [1] | Papp A→B at 2 h ([1]; 120 min) [×10⁻⁶ cm/s] | Papp B→A at 2 h ([1]; 120 min) [×10⁻⁶ cm/s]
1 | CN1CC[C@@H](Nc2cccc3c(CC(F)(F)F)c(C#CCNC(=O)c4cnn(C(C)(C)C)c4)nn23)[C@@H](F)C1 [Compound 001, 1-tert-butyl-N-[3-(7-{[(3S,4R)-3-fluoro-1-methylpiperidin-4-yl]amino}-3-(2,2,2-trifluoroethyl)pyrazolo[1,5-a]pyridin-2-yl)prop-2-yn-1-yl]-1H-pyrazole-4-carboxamide] | 1.41 | 8.07 | 3.05 | 17.50 | 4.39 | 6.5 | 1.48 |  | 
2 | CN1CC[C@@H](Nc2cccc3c(CC(F)(F)F)c(C#CCNC(=O)c4cnn(C(C)(C)C)c4N)nn23)[C@@H](F)C1 [Compound 047] | 1.12 | 5.67 | 2.66 | 13.47 |  |  | 1.51 | 5.18 | 7.8
3 | CCn1ncc(C(=O)NCC#Cc2nn3c(N[C@@H]4CCN(C)C[C@@H]4F)cccc3c2CC(F)(F)F)c1N [Compound 261, 5-amino-1-ethyl-N-[3-(7-{[(3S,4R)-3-fluoro-1-methylpiperidin-4-yl]amino}-3-(2,2,2-trifluoroethyl)pyrazolo[1,5-a]pyridin-2-yl)prop-2-yn-1-yl]-1H-pyrazole-4-carboxamide] | 0.89 | 4.48 | 1.43 | 7.20 |  |  |  |  | 
4 | CNC(=O)c1ccc(NCC#Cc2cc3c(N[C@@H]4CCN(C)C[C@@H]4F)cccc3n2CC(F)(F)F)c(OC)c1 [Control compound, reference compound] | 1.40 | 8.61 | 8.58 | 52.82 | 4.68 | 19.4 | 4.16 |  | 
